Laboratory results taken from article PMC7594079, “Insights into the Function and Evolution of Taste 1 Receptor Gene Family in the Carnivore Fish Gilthead Seabream (Sparus aurata)” (International Journal of Molecular Sciences, 2020).

Columns and labels:
saT1R2b/R3 = target: T1, saT1R2b/R3 (Sparus aurata, UniProt A0A671TG56+A0A671VZB3); assay: saT1R2b/R3 heterodimer transiently transfected in stable pGL3-NFAT-luc-HEK293 (Cl.3) cells, luciferase reporter; assay type: cell-based; details: for T1R2b/R3 [MSD] maximum stimulation dose: as molarity, decimal comma
T1 sequence (A0A671TG56 20-821): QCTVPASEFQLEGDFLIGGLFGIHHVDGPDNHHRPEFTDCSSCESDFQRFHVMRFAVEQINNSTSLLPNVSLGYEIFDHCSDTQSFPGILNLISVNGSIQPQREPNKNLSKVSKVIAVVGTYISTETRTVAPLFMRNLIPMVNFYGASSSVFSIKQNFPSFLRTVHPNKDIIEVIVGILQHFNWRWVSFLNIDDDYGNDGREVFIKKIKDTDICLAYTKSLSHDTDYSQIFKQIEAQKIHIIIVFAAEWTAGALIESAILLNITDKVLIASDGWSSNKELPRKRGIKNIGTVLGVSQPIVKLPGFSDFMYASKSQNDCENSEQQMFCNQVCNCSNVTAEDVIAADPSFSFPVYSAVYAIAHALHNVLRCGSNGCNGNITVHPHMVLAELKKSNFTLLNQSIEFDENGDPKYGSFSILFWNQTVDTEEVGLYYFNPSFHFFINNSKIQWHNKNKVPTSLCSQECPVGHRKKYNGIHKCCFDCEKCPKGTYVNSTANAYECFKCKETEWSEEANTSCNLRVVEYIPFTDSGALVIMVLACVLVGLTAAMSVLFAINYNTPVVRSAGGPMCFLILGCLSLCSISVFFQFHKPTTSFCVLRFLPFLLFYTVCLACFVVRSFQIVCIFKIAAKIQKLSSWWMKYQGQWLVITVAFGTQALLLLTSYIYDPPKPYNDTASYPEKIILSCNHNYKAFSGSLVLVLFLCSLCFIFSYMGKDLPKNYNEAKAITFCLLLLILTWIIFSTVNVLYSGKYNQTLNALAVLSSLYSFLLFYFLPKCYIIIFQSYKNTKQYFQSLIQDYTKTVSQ
T1 sequence (A0A671VZB3 24-860): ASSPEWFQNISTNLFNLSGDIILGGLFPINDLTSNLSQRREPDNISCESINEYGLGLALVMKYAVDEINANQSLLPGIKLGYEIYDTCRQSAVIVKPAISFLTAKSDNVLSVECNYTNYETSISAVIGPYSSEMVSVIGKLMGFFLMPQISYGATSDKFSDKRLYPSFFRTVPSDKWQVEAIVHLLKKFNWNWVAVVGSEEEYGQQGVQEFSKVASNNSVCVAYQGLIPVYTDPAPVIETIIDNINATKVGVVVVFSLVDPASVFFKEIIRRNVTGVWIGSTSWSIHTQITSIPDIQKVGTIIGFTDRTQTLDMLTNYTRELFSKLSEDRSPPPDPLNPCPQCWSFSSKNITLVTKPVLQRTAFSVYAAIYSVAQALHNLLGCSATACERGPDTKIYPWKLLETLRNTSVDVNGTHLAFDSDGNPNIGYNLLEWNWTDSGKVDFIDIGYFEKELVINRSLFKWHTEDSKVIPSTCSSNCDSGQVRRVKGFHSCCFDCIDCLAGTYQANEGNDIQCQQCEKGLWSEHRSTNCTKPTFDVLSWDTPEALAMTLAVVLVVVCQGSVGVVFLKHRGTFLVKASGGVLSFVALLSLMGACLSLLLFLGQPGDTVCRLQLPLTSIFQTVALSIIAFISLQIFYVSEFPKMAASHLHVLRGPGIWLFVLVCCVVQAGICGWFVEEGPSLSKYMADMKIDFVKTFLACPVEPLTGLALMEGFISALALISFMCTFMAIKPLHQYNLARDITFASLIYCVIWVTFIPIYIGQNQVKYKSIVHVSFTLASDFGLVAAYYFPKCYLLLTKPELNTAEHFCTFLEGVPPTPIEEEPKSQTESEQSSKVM
Source text: Figure 6 Amino acid Log-dose response curves of activation in heterologous co-transfected (Cl.3) cells with saT1R1/3 (green dots), saT1R2a/3 (red squares) and saT1R2b/3 (black triangles) heterodimers. Evaluation of L-AA responses was based on the RLU mean ± SEM of four independent determinations normalized to the mean response of the same transfections stimulated with reduced assay medium (Basal Medium Eagle w/o L-glutamate (BME) + 1% FBS), and expressed as the percentage relative to basal levels (BL).
HEK293 cells were cultured in standard medium DMEM (Gibco, Thermo Fisher, Saint Louis, MO, USA) containing 10% FBS, penicillin (100 U/mL) and streptomycin ([…]) at 37 °C, with a humidified atmosphere at 5% CO2. pGL3-NFAT-luc-HEK293 stable clones were generated by co-transfections of pGL3-NFAT-luc and tgCMV/HyTK plasmids (50:1), the latter harboring the hygromycin phosphotransferase gene, using Lipofectamine LTX according to supplier’s protocols (Thermo Fisher, Saint Louis, MO, USA). Initially, HEK293 cells were selected using DMEM containing 400 μg/mL hygromycin B (Sigma, Darmstadt, Germany) in 24-well plates for two weeks; 24 colonies were further grown out in 96-well plates under reduced hygromycin selection (200 µg/mL) for three weeks. Potentially resistant NFAT-luc-HEK293 clones (n = 22) were validated after incubation in assay medium (DMEM + 1% FBS) containing PMA or Ionomycin (Sigma, Darmstadt, Germany) for 18 h (triplicates, 50,000 cells/well). Luciferase activity was quantified with ONE-Glo™ EX Reagent Kit (Promega, Madison, WI, USA) using a 96-microplate TECAN reader (Trading AG, Switzerland).
(§1) saT1Rs (saT1R1, saT1R2a, saT1R2b saT1R3) and saGαi1-2 genes were RT-PCR amplified using 5’ and 3’ flanking primers carrying HindIII and XhoI restriction sites, respectively. Gel-purified fragments were cloned into pGEM-T Easy vectors, re-sequenced, digested and subcloned into pcDNA™3 (Invitrogen, Carlsbad, CA, USA). Effective saT1R cloning into pcDNA™3 was further verified by HindIII/XhoI digestion. Transient co-transfections were done in 6-well plates (confluence ~70–80%) using 100 μL of reduced serum medium (Opti-MEM, Gibco, Thermo Fisher, Saint Louis, MO, USA) containing 150 ng of each selected pcDNA™3 construct, 1:10 charge ratio of Enhanced Green Fluorescent expressing construct (EGFP; positive control), and pBluescript II SK (+) vector DNA (Addgene, Watertown, MA, USA) up to 1 µg of totally transfected DNA. Following 24 h incubation, cells were washed with fresh standard medium and plated in polylysine treated plates for additional 24 h. Cells were then stimulated with L-AAs and sugar compounds for 18 h in a reduced assay medium (BME w/o L-glutamate; Gibco, Thermo Fisher, Saint Louis, MO, USA) + 1% FBS), to prevent unspecific Ca^2+/NFAT signaling activation and potential saT1R desensitization. All L-AAs and sugars used for in vitro experiments were obtained from Merck KGaA (Darmstadt, Germany).

[1] = test system: saT1R1/R3, saT1R2a/R3 and saT1R2b/R3; assay: Screen of 20 L-AAs for dose-response activation of the three saT1R heterodimers in Cl.3 cells; assay type: cell-based, Sparus aurata; details: up to eight concentrations, 10 nM to 100 mM
Method: as §1

SMILES	T1R2b/R3 [MSD] maximum stimulation dose (saT1R2b/R3)	dose-response activation for at least one of the three saT1R heterodimers [1]	concentration with significant activation (saT1R2b/R3; saT1R2b/R3, tested 1–500 mM)
C[C@H](N)C(=O)O [Ala, Alanine]	1,00 × 10^-1 M	generated a dose-response activation	
N=C(N)NCCC[C@H](N)C(=O)O [Arg, Arginine]	1,00 × 10^-5 M	did not respond in a dose-response manner	
NC(=O)C[C@H](N)C(=O)O [Asn, Asparagine]	1,00 × 10^-1 M	did not respond in a dose-response manner	
N[C@@H](CC(=O)O)C(=O)O [Asp, Aspartic acid]	1,00 × 10^-5 M	did not respond in a dose-response manner	
N[C@@H](CS)C(=O)O [Cys, Cysteine]	1,00 × 10^-4 M	did not respond in a dose-response manner	
OC[C@H]1OC(O)[C@H](O)[C@@H](O)[C@@H]1O (stereo partly drawn) [D-Glucose]			200 mM
NC(=O)CC[C@H](N)C(=O)O [Gln, Glutamine]	1,00 × 10^-1 M	generated a dose-response activation	
N[C@@H](CCC(=O)O)C(=O)O [Glu, Glutamic acid]	1,00 × 10^-2 M	generated a dose-response activation	
NCC(=O)O [Gly, Glycine]	1,00 × 10^-1 M	generated a dose-response activation	
N[C@@H](Cc1c[nH]cn1)C(=O)O [His, Histidine]	1,00 × 10^-5 M	did not respond in a dose-response manner	
CC[C@H](C)[C@H](N)C(=O)O [Ile, Isoleucine]	1,00 × 10^-1 M	generated a dose-response activation	
CC(C)C[C@H](N)C(=O)O [Leu, Leucine]	1,00 × 10^-1 M	generated a dose-response activation	
NCCCC[C@H](N)C(=O)O [Lys, Lysine]	1,00 × 10^-3 M	did not respond in a dose-response manner	
CSCC[C@H](N)C(=O)O [Met, Methionine]	1,00 × 10^-1 M	generated a dose-response activation	
N[C@@H](Cc1ccccc1)C(=O)O [Phe, Phenylalanine]	1,00 × 10^-2 M	did not respond in a dose-response manner	
O=C(O)[C@@H]1CCCN1 [Pro, Proline]	1,00 × 10^-1 M	generated a dose-response activation	
N[C@@H](CO)C(=O)O [Ser, Serine]	1,00 × 10^-1 M	generated a dose-response activation	
C[C@@H](O)[C@H](N)C(=O)O [Thr, Threonine]	1,00 × 10^-1 M	generated a dose-response activation	
N[C@@H](Cc1c[nH]c2ccccc12)C(=O)O [Trp, Tryptophan]	1,00 × 10^-3 M	did not respond in a dose-response manner	
N[C@@H](Cc1ccc(O)cc1)C(=O)O [Tyr, Tyrosine]	1,00 × 10^-3 M	did not respond in a dose-response manner	
CC(C)[C@H](N)C(=O)O [Val, Valine]	1,00 × 10^-1 M	generated a dose-response activation	
